“And” between values parts separate entries of the source, which are not always exact repeats. Identical values can stand only once.
Key:
Format in all cases: cell-based, human
[1] = test system: PBMC from allergic donors; test: IFN-γ ELISPOT with extract-stimulated short-term lines; conditions: positive donor/peptide response
Experimental: (§1) Spots were counted by computer-assisted image analysis (Zeiss, KS-ELISPOT reader, Munich, Germany).
(§2) Each assay was performed in triplicate. The level of statistical significance was determined with a Student's t-test using the mean of triplicate values of the response against relevant pools or individual peptides versus the response against the DMSO control.

[2] = test system: PBMC from allergic donors; test: Dual ELISPOT, total IL-5 and IFN-γ response (SFC); conditions: sum of IFNg and IL-5
Experimental: as §1, §2

[3] = test system: PBMC from allergic donors; test: IL-5 ELISPOT with extract-stimulated short-term lines; conditions: positive donor/peptide response
Experimental: as §1, §2

Row | Compound | Response (SFC/10^6) IFNg ([1]; each table line is one donor) | Response (SFC/10^6) Total ([2]; each table line is one donor) | Response (SFC/10^6) IFNg ([1]; one donor per table line) | Response (SFC/10^6) Total ([2]; one donor per table line) | further results
1 | 3337.0006 (KQEDDGLCYEGTNCG) | 123 SFC/10^6 | 123 SFC/10^6 | – | – | –
2 | CC[C@H](C)[C@H](NC(=O)[C@H](CC(=O)O)NC(=O)[C@H](CCC(=O)O)NC(=O)[C@H](CCSC)NC(=O)[C@H](CC(C)C)NC(=O)[C@H](CCCCN)NC(=O)[C@@H](N)CCC(N)=O)C(=O)N[C@@H](CC(N)=O)C(=O)N[C@H](C(=O)NCC(=O)N[C@@H](Cc1ccccc1)C(=O)N[C@@H](CCCCN)C(=O)N[C@@H](C)C(=O)N[C@@H](C)C(=O)N[C@H](C(=O)O)C(C)C)C(C)C [3324.1580] | 317 SFC/10^6 and 283 SFC/10^6 | 317 SFC/10^6 and 390 SFC/10^6 | – | – | Response (SFC/10^6) IL-5 ([3]; each table line is one donor): 107 SFC/10^6
3 | 3324.0380 (VILAINHSVFVKGDH) | – | – | 1410 SFC/10^6 | 1410 SFC/10^6 | –
4 | 3324.0922 (TGLPLMYKFGDNLVV) | – | – | 247 SFC/10^6 | 247 SFC/10^6 | –
5 | C[C@H](NC(=O)[C@@H](NC(=O)[C@H](C)NC(=O)[C@H](C)NC(=O)[C@H](C)NC(=O)[C@@H]1CCCN1C(=O)[C@@H](NC(=O)[C@H](C)NC(=O)[C@@H](NC(=O)[C@H](C)NC(=O)[C@H](Cc1ccc(O)cc1)NC(=O)[C@H](C)NC(=O)[C@H](C)NC(=O)[C@H](C)NC(=O)[C@@H]1CCCN1)[C@@H](C)O)[C@@H](C)O)[C@@H](C)O)C(=O)O [3324.1184] | 58 SFC/10^6 | 58 SFC/10^6 and 1637 SFC/10^6 | – | – | Response (SFC/10^6) IL-5 ([3]; each table line is one donor): 1637 SFC/10^6
6 | 3337.0028 (EPIAPYHFDLSGHAF) | – | – | 157 SFC/10^6 | 253 SFC/10^6 | Response (SFC/10^6) IL-5 ([3]; one donor per table line): 97 SFC/10^6
7 | CC[C@H](C)[C@H](NC(=O)[C@H](CC(N)=O)NC(=O)[C@H](CCCCN)NC(=O)[C@H](C)NC(=O)[C@@H]1CCCN1C(=O)[C@H](CCCCN)NC(=O)[C@@H](NC(=O)[C@H](Cc1ccc(O)cc1)NC(=O)[C@@H](NC(=O)[C@@H](NC(=O)[C@H](CCCCN)NC(=O)[C@H](CC(N)=O)NC(=O)[C@H](CC(C)C)NC(=O)[C@@H](NC(=O)[C@@H](N)CCCNC(=N)N)[C@@H](C)O)[C@@H](C)CC)C(C)C)[C@@H](C)CC)C(=O)O [3324.0387] | – | – | 580 SFC/10^6 and 140 SFC/10^6 | 580 SFC/10^6 and 140 SFC/10^6 | –
8 | 3324.1159 (PENFAVVDLNQMRAV) | 75 SFC/10^6 | 75 SFC/10^6 | – | – | –
9 | 3324.0102 (DKWLDAKSTWYGKPT) | – | – | 447 SFC/10^6 and 233 SFC/10^6 and 123 SFC/10^6 | 593 SFC/10^6 and 233 SFC/10^6 and 123 SFC/10^6 | Response (SFC/10^6) IL-5 ([3]; one donor per table line): 147 SFC/10^6
10 | 3324.1169 (DAALKLAYEAAQGAT) | 120 SFC/10^6 | 120 SFC/10^6 | – | – | –
11 | CC[C@H](C)[C@H](NC(=O)[C@H](CO)NC(=O)CNC(=O)CN)C(=O)N[C@@H](CC(C)C)C(=O)N[C@@H](CCCCN)C(=O)N[C@H](C(=O)N[C@@H](CO)C(=O)N[C@@H](CC(N)=O)C(=O)N[C@@H](CCCCN)C(=O)N[C@@H](Cc1ccccc1)C(=O)N[C@@H](Cc1c[nH]cn1)C(=O)N[C@H](C(=O)N[C@@H](CCCCN)C(=O)NCC(=O)O)[C@@H](C)O)[C@@H](C)CC [3324.0007] | – | – | 887 SFC/10^6 and 357 SFC/10^6 | 887 SFC/10^6 and 357 SFC/10^6 | –
12 | 3324.1171 (KTFVETFGTATNKAF) | 73 SFC/10^6 | 73 SFC/10^6 | – | – | –
13 | 3324.1166 (HTVALFLAVALVAGP) | 53 SFC/10^6 | 53 SFC/10^6 | – | – | –
14 | CC[C@H](C)[C@H](NC(=O)[C@H](Cc1ccccc1)NC(=O)[C@H](C)NC(=O)[C@H](CCCCN)NC(=O)[C@H](Cc1ccccc1)NC(=O)[C@H](CC(C)C)NC(=O)[C@H](CCCNC(=N)N)NC(=O)[C@H](C)NC(=O)[C@H](C)NC(=O)[C@@H]1CCCN1C(=O)[C@@H](NC(=O)[C@@H](NC(=O)[C@H](CO)NC(=O)[C@@H]1CCCN1)C(C)C)[C@@H](C)CC)C(=O)N[C@@H](CC(C)C)C(=O)O [3324.0004] | – | – | 683 SFC/10^6 | 683 SFC/10^6 | –
15 | 3324.1647 (SLATLQSLESIVGKD) | 228 SFC/10^6 | 228 SFC/10^6 | – | – | –
16 | CC[C@H](C)[C@H](NC(=O)[C@H](CC(N)=O)NC(=O)[C@H](CCSC)NC(=O)[C@H](CC(N)=O)NC(=O)[C@H](CCC(N)=O)NC(=O)[C@H](CO)NC(=O)[C@H](Cc1ccccc1)NC(=O)[C@@H](NC(=O)[C@@H](NC(=O)[C@H](Cc1c[nH]c2ccccc12)NC(=O)[C@H](CC(C)C)NC(=O)[C@H](C)NC(=O)[C@@H](N)CCCCN)[C@@H](C)CC)[C@@H](C)CC)C(=O)N[C@@H](CCCCN)C(=O)N[C@@H](CC(C)C)C(=O)O [3324.0604] | – | – | 390 SFC/10^6 | 390 SFC/10^6 | –
17 | 3324.1443 (DAAYRVAYEAAEGST) | 70 SFC/10^6 | 70 SFC/10^6 | – | – | –
18 | 3324.0894 (NGKLHLSLIDPSTLS) | – | – | 460 SFC/10^6 | 460 SFC/10^6 | –
19 | 3324.1145 (LRKYGIAAENVIDVK) | 50 SFC/10^6 | 50 SFC/10^6 | – | – | –
20 | 3324.0630 (LVATSAISLHMQEAG) | – | – | 83 SFC/10^6 | 83 SFC/10^6 | –
21 | 3324.0103 (IAKVPPGPNITATYG) | – | – | 153 SFC/10^6 and 223 SFC/10^6 and 267 SFC/10^6 | 153 SFC/10^6 and 223 SFC/10^6 and 267 SFC/10^6 | –

Row | Compound | Response (SFC/10^6) IFNg ([1]; each table line is one donor) | Response (SFC/10^6) Total ([2]; each table line is one donor) | Response (SFC/10^6) IFNg ([1]; one donor per table line) | Response (SFC/10^6) Total ([2]; one donor per table line) | further results
22 | 3337.0007 (GKYCVCYDSKAICNK) | 47 SFC/10^6 | 47 SFC/10^6 | – | – | –
23 | 3324.0652 (LRTLGSTSADEVQRM) | – | – | 113 SFC/10^6 | 113 SFC/10^6 | –
24 | 3324.0372 (PAKNIYSFNEIVALW) | – | – | 67 SFC/10^6 | 67 SFC/10^6 | –
25 | 3337.0039 (SWGAIWRIDTPDKLT) | 155 SFC/10^6 | 155 SFC/10^6 | – | – | –
26 | 3324.0001 (AVGLLKAVESYLLAH) | – | – | 597 SFC/10^6 | – | Response (SFC/10^6) IL-5 ([3]; one donor per table line): 597 SFC/10^6
27 | 3324.0100 (MLTLFILIITSTIKA) | 63 SFC/10^6 and 167 SFC/10^6 | 63 SFC/10^6 and 167 SFC/10^6 | – | – | –
28 | 3324.0382 (LYPDVKYTTVEEYLQ) | – | – | 67 SFC/10^6 | – | Response (SFC/10^6) IL-5 ([3]; one donor per table line): 67 SFC/10^6
29 | CC[C@H](C)[C@H](N)C(=O)N[C@H](C(=O)N[C@@H](Cc1ccc(O)cc1)C(=O)N[C@H](C(=O)N[C@@H](CCCCN)C(=O)N1CCC[C@H]1C(=O)N[C@@H](C)C(=O)N[C@@H](CCCCN)C(=O)N[C@@H](CC(N)=O)C(=O)N[C@H](C(=O)N[C@@H](Cc1ccc(O)cc1)C(=O)N[C@@H](CO)C(=O)N[C@@H](Cc1ccccc1)C(=O)N[C@@H](CC(N)=O)C(=O)N[C@@H](CCC(=O)O)C(=O)O)[C@@H](C)CC)[C@@H](C)CC)C(C)C [3324.0386] | – | – | 227 SFC/10^6 and 487 SFC/10^6 | 227 SFC/10^6 and 487 SFC/10^6 | –
30 | 3324.1177 (AAVKQAYAAKQATAP) | 43 SFC/10^6 | 43 SFC/10^6 | – | – | –
31 | 3324.1152 (FPHRKGVLFNIQYVN) | 100 SFC/10^6 | 100 SFC/10^6 | – | – | –
32 | 3324.0639 (TVWAQSAAFPAFKPE) | – | – | 463 SFC/10^6 and 100 SFC/10^6 | 463 SFC/10^6 and 100 SFC/10^6 | –
33 | 3324.0384 (VKAFKQVDVVISTVG) | – | – | 1007 SFC/10^6 | 1007 SFC/10^6 | –
34 | 3324.1180 (PEAKYDAYVATLTEA) | 227 SFC/10^6 | 227 SFC/10^6 | – | – | –
35 | 3324.1636 (FFSANAAALASRKSS) | 93 SFC/10^6 | 93 SFC/10^6 | – | – | –
36 | 3324.1653 (FDLYFSMARGNASLP) | 343 SFC/10^6 | 343 SFC/10^6 | – | – | –
37 | 3324.1151 (NEMSWIESIPFVHLG) | 1933 SFC/10^6 | 1933 SFC/10^6 | – | – | –
38 | 3324.1133 (MASSSSVLLVVALFA) | – | – | 53 SFC/10^6 | 53 SFC/10^6 | –
39 | 3324.0918 (NAMDEIIKSTDAEPA) | – | – | 260 SFC/10^6 | 260 SFC/10^6 | –
40 | 3324.0914 (FAFGYFNGRILGVCP) | – | – | 133 SFC/10^6 | 133 SFC/10^6 | –
41 | 3324.0379 (TNFEIEASFGVEASE) | – | – | 1113 SFC/10^6 | 1113 SFC/10^6 | –
42 | 3324.0633 (MLAVVAVVLASMVGG) | – | – | 227 SFC/10^6 | 227 SFC/10^6 | –

Source: patent publication US10918713B2, “Epitopes from allergen proteins and methods and uses for immune response modulation” (LA JOLLA INSTITUTE FOR ALLERGY AND IMMUNOLOGY, priority 2012, dated 2021)
